What was measured:
[1] = molecular target: Phosphatidylinositol 4,5-bisphosphate 3-kinase catalytic subunit beta isoform (Homo sapiens) (UniProt P42338); assay: Inhibition of PIK3CB (unknown origin) assessed as remaining activity at 1 uM by Kinome scan method relative to control
[2] = molecular target: Serine/threonine-protein kinase MARK1 (Homo sapiens) (UniProt Q9P0L2); assay: Inhibition of MARK1 (unknown origin) assessed as remaining activity at 1 uM by Kinome scan method relative to control
[3] = molecular target: Cyclin-dependent kinase 11A (Homo sapiens) (UniProt Q9UQ88); assay: Inhibition of CDC2L2 (unknown origin) assessed as remaining activity at 1 uM by Kinome scan method relative to control
Chain of Cyclin-dependent kinase 11A (Homo sapiens) (Q9UQ88 whole entry): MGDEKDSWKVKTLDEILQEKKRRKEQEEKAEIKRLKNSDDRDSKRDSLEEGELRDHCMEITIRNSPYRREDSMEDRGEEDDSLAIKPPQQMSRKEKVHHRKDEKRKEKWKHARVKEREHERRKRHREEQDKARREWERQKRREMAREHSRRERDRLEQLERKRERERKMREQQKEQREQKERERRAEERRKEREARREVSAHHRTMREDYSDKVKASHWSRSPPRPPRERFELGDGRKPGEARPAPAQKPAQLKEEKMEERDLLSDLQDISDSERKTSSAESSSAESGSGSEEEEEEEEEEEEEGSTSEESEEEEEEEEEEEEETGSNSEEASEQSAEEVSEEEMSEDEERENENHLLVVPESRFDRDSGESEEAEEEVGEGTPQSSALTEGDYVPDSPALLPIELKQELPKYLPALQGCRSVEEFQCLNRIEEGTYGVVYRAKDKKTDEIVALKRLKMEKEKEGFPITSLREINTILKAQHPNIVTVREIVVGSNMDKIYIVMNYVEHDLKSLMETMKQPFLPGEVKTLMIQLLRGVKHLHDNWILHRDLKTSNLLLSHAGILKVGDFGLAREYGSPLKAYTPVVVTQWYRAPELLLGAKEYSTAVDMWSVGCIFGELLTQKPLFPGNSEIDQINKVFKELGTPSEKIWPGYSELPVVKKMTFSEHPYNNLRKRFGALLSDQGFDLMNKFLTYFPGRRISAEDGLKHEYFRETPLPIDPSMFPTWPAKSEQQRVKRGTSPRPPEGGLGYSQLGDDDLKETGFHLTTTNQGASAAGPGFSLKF

[4] = molecular target: Activin receptor type-1-like (Homo sapiens) (UniProt P37023); assay: Inhibition of ACVRL1 (unknown origin) assessed as remaining activity at 1 uM by Kinome scan method relative to control
Chain of Activin receptor type-1-like (Homo sapiens) (P37023 whole entry): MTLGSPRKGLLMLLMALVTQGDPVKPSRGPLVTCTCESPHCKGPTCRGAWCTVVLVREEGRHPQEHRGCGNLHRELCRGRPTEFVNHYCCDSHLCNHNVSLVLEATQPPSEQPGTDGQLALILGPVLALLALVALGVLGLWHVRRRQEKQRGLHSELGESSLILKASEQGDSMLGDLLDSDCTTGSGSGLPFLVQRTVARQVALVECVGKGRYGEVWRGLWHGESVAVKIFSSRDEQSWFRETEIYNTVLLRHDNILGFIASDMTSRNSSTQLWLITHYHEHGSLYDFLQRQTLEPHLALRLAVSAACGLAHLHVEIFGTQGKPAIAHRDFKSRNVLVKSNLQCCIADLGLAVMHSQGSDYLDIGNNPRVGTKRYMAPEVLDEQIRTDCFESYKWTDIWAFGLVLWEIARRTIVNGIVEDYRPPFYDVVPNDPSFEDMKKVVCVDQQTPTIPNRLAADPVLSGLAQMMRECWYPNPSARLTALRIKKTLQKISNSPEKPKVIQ

[5] = molecular target: Serine/threonine-protein kinase LATS1 (Homo sapiens) (UniProt O95835); assay: Inhibition of LATS1 (unknown origin) assessed as remaining activity at 1 uM by Kinome scan method relative to control
Chain of Serine/threonine-protein kinase LATS1 (Homo sapiens) (O95835 whole entry): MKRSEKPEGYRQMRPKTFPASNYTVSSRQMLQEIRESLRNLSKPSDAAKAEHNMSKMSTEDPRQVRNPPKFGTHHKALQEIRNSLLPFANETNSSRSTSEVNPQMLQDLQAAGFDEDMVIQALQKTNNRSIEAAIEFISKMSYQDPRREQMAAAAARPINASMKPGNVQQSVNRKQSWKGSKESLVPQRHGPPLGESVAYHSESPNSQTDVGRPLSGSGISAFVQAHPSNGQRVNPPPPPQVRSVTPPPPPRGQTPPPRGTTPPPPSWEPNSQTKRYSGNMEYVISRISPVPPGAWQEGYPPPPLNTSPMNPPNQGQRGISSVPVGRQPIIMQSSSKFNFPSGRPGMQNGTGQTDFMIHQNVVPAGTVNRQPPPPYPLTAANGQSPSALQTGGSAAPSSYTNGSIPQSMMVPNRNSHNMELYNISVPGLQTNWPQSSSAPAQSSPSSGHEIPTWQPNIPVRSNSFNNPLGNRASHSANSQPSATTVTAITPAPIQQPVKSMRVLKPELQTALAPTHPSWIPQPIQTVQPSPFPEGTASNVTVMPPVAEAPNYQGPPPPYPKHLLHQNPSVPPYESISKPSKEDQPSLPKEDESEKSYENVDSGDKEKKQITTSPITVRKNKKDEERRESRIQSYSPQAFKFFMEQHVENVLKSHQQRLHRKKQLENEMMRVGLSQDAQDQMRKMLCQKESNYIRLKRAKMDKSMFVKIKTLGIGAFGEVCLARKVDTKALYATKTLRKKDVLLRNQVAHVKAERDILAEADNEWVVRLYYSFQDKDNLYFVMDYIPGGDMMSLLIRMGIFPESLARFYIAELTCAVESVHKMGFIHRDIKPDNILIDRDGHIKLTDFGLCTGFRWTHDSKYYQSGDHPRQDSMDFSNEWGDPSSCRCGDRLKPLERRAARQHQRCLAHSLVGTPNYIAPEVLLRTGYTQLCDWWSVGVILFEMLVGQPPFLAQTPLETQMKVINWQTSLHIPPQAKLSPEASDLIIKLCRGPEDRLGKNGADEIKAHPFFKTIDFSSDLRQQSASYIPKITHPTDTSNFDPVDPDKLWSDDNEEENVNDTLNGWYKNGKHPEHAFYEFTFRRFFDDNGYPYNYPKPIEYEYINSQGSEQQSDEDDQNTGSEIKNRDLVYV

[6] = molecular target: Dual specificity mitogen-activated protein kinase kinase 2 (Homo sapiens) (UniProt P36507); assay: Inhibition of MEK2 (unknown origin) assessed as remaining activity at 1 uM by Kinome scan method relative to control
Chain of Dual specificity mitogen-activated protein kinase kinase 2 (Homo sapiens) (P36507 whole entry): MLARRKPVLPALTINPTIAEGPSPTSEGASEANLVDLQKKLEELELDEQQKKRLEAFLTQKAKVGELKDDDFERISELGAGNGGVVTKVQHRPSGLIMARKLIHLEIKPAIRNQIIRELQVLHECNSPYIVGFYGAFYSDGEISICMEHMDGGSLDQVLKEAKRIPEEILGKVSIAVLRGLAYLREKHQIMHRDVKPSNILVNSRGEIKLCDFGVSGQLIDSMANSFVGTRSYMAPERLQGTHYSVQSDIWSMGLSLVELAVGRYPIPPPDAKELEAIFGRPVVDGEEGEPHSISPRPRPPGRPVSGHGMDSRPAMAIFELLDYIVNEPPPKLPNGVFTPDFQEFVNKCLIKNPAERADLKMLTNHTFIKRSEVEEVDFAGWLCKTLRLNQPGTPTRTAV

[7] = molecular target: Serine/threonine-protein kinase tousled-like 2 (Homo sapiens) (UniProt Q86UE8); assay: Inhibition of TLK2 (unknown origin) assessed as remaining activity at 1 uM by Kinome scan method relative to control
Chain of Serine/threonine-protein kinase tousled-like 2 (Homo sapiens) (Q86UE8 whole entry, looked up, canonical isoform): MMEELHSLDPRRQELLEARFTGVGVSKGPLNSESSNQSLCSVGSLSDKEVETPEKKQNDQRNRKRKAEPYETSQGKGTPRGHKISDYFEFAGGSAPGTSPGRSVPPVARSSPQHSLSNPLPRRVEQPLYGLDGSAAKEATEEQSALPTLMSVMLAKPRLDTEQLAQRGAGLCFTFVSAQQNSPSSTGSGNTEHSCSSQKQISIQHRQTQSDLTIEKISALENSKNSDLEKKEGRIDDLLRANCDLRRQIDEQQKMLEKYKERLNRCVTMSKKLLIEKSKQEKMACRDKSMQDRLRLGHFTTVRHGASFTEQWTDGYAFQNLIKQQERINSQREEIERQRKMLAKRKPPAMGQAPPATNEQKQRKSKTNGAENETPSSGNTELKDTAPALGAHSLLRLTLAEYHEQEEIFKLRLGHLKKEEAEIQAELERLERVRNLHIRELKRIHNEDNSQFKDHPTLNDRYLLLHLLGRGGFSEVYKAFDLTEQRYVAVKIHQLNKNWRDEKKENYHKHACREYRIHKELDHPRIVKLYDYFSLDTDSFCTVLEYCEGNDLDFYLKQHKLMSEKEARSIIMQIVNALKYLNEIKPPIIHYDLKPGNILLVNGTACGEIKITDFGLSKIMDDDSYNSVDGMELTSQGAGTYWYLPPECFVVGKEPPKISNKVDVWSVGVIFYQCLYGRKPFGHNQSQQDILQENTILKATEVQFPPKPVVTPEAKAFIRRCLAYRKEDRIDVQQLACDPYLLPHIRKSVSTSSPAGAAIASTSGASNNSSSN

[8] = test system: Phosphatidylinositol 4,5-bisphosphate 3-kinase catalytic subunit alpha isoform (Homo sapiens), P42336 [M1043I]; assay: Inhibition of PIK3CA M1043I mutant (unknown origin) assessed as remaining activity at 1 uM by Kinome scan method relative to control
[9] = molecular target: STE20/SPS1-related proline-alanine-rich protein kinase (Homo sapiens) (UniProt Q9UEW8); assay: Inhibition of STK39 (unknown origin) assessed as remaining activity at 1 uM by Kinome scan method relative to control
[10] = molecular target: T1, Serine/threonine-protein kinase TAO3 (Homo sapiens) (UniProt Q9H2K8); assay: Inhibition of TAOK3 (unknown origin) assessed as remaining activity at 1 uM by Kinome scan method relative to control
T1 sequence (whole entry): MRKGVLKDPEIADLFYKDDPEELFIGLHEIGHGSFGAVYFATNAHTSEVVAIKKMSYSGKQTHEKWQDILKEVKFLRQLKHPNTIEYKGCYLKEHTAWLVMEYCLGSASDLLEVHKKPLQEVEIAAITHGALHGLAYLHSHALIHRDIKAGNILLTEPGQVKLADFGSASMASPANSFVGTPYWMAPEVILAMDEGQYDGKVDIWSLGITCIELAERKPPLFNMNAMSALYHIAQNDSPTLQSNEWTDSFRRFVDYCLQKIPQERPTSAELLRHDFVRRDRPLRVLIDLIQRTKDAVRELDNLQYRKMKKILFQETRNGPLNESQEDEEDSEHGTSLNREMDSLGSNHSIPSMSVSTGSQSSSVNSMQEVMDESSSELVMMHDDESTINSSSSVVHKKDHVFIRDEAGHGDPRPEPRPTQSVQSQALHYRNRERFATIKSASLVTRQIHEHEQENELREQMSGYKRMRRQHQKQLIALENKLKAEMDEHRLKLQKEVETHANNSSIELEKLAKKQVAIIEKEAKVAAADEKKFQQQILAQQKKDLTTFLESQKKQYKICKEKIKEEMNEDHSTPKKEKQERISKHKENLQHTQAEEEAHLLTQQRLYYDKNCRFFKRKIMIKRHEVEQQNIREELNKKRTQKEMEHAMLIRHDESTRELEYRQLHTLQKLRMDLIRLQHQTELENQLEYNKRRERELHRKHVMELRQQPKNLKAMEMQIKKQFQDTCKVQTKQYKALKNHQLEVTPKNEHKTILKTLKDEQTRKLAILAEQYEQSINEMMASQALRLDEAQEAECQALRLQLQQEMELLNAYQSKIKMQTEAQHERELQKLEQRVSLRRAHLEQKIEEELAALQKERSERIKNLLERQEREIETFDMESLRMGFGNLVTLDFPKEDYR

[11] = molecular target: LIM domain kinase 1 (Homo sapiens) (UniProt P53667); assay: Inhibition of LIMK1 (unknown origin) assessed as remaining activity at 1 uM by Kinome scan method relative to control
Homo sapiens = species on record: Homo sapiens; assay: Inhibition of ACVR1a (unknown origin) assessed as remaining activity at 1 uM by Kinome scan method relative to control
[12] = molecular target: Tyrosine-protein kinase receptor Tie-1 (Homo sapiens) (UniProt P35590); assay: Inhibition of TIE1 (unknown origin) assessed as remaining activity at 1 uM by Kinome scan method relative to control
[13] = test system: Tyrosine-protein kinase ABL1 (Homo sapiens), P00519 [E255K]; assay: Inhibition of ABL1 E255K mutant (unknown origin) assessed as remaining activity at 1 uM by Kinome scan method relative to control
Chain of Tyrosine-protein kinase ABL1 (Homo sapiens), P00519 [E255K] (P00519 whole entry E255K): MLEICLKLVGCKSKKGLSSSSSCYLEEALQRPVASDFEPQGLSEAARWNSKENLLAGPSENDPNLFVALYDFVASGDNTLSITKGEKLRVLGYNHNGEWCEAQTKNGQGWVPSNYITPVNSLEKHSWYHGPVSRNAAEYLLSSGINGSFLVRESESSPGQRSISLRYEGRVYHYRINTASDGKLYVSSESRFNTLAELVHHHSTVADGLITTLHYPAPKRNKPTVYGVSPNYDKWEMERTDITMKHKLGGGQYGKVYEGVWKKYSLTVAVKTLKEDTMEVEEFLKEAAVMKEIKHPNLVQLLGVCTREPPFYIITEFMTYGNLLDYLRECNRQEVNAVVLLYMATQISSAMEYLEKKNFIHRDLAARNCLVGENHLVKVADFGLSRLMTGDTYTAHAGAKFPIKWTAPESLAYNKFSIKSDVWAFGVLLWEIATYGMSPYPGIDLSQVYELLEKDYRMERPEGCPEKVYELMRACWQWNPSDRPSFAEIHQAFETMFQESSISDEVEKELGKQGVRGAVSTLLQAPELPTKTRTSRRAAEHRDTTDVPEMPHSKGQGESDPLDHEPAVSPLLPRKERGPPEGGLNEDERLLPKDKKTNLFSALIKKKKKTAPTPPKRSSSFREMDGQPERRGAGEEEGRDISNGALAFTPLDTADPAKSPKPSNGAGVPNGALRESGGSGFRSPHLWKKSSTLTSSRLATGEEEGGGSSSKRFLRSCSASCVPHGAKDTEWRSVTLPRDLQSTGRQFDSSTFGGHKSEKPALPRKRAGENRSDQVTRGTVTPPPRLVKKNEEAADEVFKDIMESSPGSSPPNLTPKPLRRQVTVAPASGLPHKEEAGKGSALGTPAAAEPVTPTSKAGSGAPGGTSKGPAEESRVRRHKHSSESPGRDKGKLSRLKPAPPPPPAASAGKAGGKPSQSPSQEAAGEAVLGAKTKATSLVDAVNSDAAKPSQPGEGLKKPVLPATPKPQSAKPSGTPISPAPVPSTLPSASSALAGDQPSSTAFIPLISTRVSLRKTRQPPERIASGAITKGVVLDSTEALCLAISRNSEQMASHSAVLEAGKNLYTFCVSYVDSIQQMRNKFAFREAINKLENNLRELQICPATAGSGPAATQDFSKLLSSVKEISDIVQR

[14] = test system: Epidermal growth factor receptor (Homo sapiens), P00533 [G719S]; assay: Inhibition of human EGFR G719S mutant assessed as residual activity at 1 uM using PolyEY as substrate in presence of 33P-ATP by ProQinase assay relative to control
[15] = test system: Proto-oncogene tyrosine-protein kinase receptor Ret (Homo sapiens), P07949 [V804M]; assay: Inhibition of RET V804M (unknown origin) assessed as remaining activity at 1 uM by Kinome scan method relative to control
[16] = molecular target: T2, Mitogen-activated protein kinase 12 (Homo sapiens) (UniProt P53778); assay: Inhibition of human P38gamma assessed as residual activity at 1 uM using RBER-IRStide as substrate in presence of 33P-ATP by ProQinase assay relative to control
T2 sequence (whole entry): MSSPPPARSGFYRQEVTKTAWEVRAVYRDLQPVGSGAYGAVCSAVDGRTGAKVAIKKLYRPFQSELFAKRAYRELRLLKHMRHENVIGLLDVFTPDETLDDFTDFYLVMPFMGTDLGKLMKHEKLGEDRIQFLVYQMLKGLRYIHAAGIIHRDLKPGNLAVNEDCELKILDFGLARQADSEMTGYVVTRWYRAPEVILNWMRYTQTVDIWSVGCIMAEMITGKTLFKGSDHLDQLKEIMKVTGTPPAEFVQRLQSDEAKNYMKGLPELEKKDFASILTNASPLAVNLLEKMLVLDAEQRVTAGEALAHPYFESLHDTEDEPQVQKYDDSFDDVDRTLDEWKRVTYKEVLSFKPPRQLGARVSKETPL

[17] = molecular target: Ephrin type-A receptor 6 (Homo sapiens) (UniProt Q9UF33); assay: Inhibition of EPHA6 (unknown origin) assessed as remaining activity at 1 uM by Kinome scan method relative to control
[18] = molecular target: Uncharacterized serine/threonine-protein kinase SBK3 (Homo sapiens) (UniProt P0C264); assay: Inhibition of SgK110 (unknown origin) assessed as remaining activity at 1 uM by Kinome scan method relative to control
Chain of Uncharacterized serine/threonine-protein kinase SBK3 (Homo sapiens) (P0C264 whole entry): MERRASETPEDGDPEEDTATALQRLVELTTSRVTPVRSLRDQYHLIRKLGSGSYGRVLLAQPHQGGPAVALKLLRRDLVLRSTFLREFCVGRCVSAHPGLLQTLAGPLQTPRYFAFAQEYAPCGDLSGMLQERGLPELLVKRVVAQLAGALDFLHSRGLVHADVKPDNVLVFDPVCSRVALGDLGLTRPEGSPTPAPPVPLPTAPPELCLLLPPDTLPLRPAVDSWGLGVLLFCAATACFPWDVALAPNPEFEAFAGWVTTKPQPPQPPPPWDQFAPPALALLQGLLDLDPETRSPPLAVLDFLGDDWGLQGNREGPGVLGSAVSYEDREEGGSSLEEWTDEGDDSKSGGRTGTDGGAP

Row | Compound | Activity [1] [%] | Activity [2] [%] | Activity [3] [%] | Activity [4] [%] | Activity [5] [%] | Activity [6] [%] | Activity [7] [%] | Activity [8] [%] | Activity [9] [%] | Activity [10] [%] | Activity [11] [%] | Activity (Homo sapiens) [%] | Activity [12] [%] | Activity [13] [%] | Activity [14] [%] | Activity [15] [%] | Activity [16] [%] | Activity [17] [%] | Activity [18] [%]
1 | Nc1ccccc1Nc1ccc2c(c1)CCc1ccccc1C2=O | 88 | 88 | 92 | 89 | 96 | 88 | 85 | 84 | 77 | 99 | 96 | 98 | 96 | 81 |  |  |  |  | 
2 | O=C1c2ccc(Nc3ccc(F)cc3F)cc2CCc2ccc(OC[C@H](O)CO)cc21 [Skepinone-L] | 96 | 93 | 93 | 100 | 90 | 90 | 82 | 90 | 93 | 100 | 86 | 98 | 100 | 96 | 96 | 95 | 102 | 96 | 90

Source: ChEMBL document CHEMBL5696441 (Nat Chem Biol, 2011)
